Values of other authors in patent US20220387384A1, “METHODS OF TREATING LSD1-RELATED DISEASES AND DISORDERS WITH LSD1 INHIBITORS” (Taiho Pharmaceutical Co., Ltd., priority 2019, published 2022).

Settings: i.e. about 3 days; NPL 11

half-life in pharmacokinetics: ~71 h
Structure (SMILES): COc1ccc(-c2c(-c3ccc(C#N)c(F)c3)nc(N3CCC(N)CC3)n(C)c2=O)cc1F [CC-90011]
